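Cells were grown in 96-well plates and exposed to each compound for 48 hours at five concentrations; endpoints were interpolated linearly between bracketing concentrations, or set to the highest concentration if not reached. Here, GI50 denotes the concentration required for 50% inhibition of growth.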 Activity calls are given as the source filed them. Cut-off read from the data, not from the text of the source: active = GI50 up to about 1.1 µM and inactive = higher.

These results are taken from ChEMBL document CHEMBL1201862, “PubChem BioAssay data set” (2004).

Test systems include Malme-3M; SK-MEL-2; OVCAR-4; SK-OV-3; U-251; KM12; SR; IGROV-1; ACHN; A498; MDA-MB-435; DU-145; UACC-62; MCF7; HOP-92; HCT-15; HCC 2998; Hs-578T; TK-10; OVCAR-3.
Experiment in all cases: NCI anticancer screen, dose series, 48 h

With `Nc1cccc(C2CCCc3c2[nH]c2ccccc32)c1` (stereo unspecified), the GI50 in the assay with Malme-3M was 18.1 µM (inactive); in the assay on SK-MEL-2 it was 17.5 µM (inactive); in the assay with OVCAR-4, 25.5 µM (inactive); in the assay with SK-OV-3, 23.9 µM (inactive); in the assay on U-251 it was 14.6 µM (inactive); in the assay with KM12, 17.5 µM (inactive). For the same compound, the GI50 with SR is 9.08 µM (inactive); in the assay on IGROV-1 it was 17.3 µM (inactive); with ACHN, 25 µM (inactive); in the assay with A498 it was 15 µM (inactive); in the assay on MDA-MB-435 it was 17.3 µM (inactive); in the assay on DU-145, 27 µM (inactive). In addition, the GI50 was 15.6 µM (inactive) in the assay with UACC-62; 21.8 µM (inactive) with MCF7; 16.9 µM (inactive) in the assay with HOP-92; 8.28 µM in the assay with HCT-15; 22.6 µM (inactive) in the assay with HCC 2998; 16 µM (inactive) with Hs-578T. For the same compound, the GI50 in the assay with TK-10 was 32.4 µM (inactive); in the assay with OVCAR-3, 26.7 µM (inactive).
Consider `COC(=O)/C=C\C(C#N)(C#N)/N=C/c1ccccc1`, for which the GI50 in the assay on Malme-3M is 2.21 µM (inactive); with SK-MEL-2, 16.7 µM (inactive); in the assay with OVCAR-4 it was 4.22 µM (inactive); in the assay on SK-OV-3 it was 18.3 µM (inactive); with U-251, 17.7 µM (inactive); in the assay on KM12 it was 17.5 µM (inactive). Besides, the GI50 in the assay on SR is 0.897 µM (active); with IGROV-1, 12.9 µM (inactive); in the assay with ACHN, 2.3 µM (inactive); in the assay with A498, 18.7 µM (inactive); with MDA-MB-435 it was 2.33 µM (inactive); in the assay on DU-145 it was 17.1 µM (inactive). Further, the GI50 in the assay on UACC-62 was 14.5 µM (inactive); with MCF7, 2.09 µM (inactive); in the assay with HOP-92, 1.55 µM (inactive); in the assay with HCT-15, 2.92 µM; with HCC 2998, 19.4 µM (inactive); in the assay with Hs-578T, 12.2 µM (inactive). Besides, the values for the GI50 in the assay on TK-10 and with OVCAR-3 were 2.25 µM (inactive) and 2.11 µM (inactive), respectively.
`CCN1/C(=C/c2ccc3ccccc3[n+]2CC)C=Cc2ccccc21`: the GI50 in the assay on Malme-3M was 1.39 µM (inactive); in the assay on SK-MEL-2, 0.687 µM (active); with OVCAR-4 it was 0.617 µM (active); in the assay with SK-OV-3, 2.18 µM (inactive); with U-251, 0.131 µM (active); with KM12 it was 0.149 µM (active). Moreover, the GI50 in the assay on SR is 0.164 µM (active); in the assay on IGROV-1, 2.51 µM (inactive); in the assay with ACHN it was 2.33 µM (inactive); in the assay on A498, 2.13 µM (inactive); with MDA-MB-435, 0.316 µM (active); in the assay with DU-145, 0.867 µM (active). Also, the GI50 was 0.767 µM (active) with UACC-62; 0.367 µM (active) with MCF7; 1.44 µM (inactive) in the assay on HOP-92; 4.89 µM in the assay with HCT-15; 0.482 µM (active) with HCC 2998; 1.01 µM (active) with Hs-578T. Further, the GI50 is 2.81 µM (inactive) in the assay with TK-10 and 0.269 µM (active) in the assay with OVCAR-3.
In the case of `Cc1cc(O)nc2cc3oc4ccccc4c3cc12`, the GI50 in the assay on Malme-3M was > 30.1 µM (inactive); with SK-MEL-2, > 100 µM (inactive); in the assay on OVCAR-4 it was > 62.2 µM (inactive); in the assay with SK-OV-3, > 57.9 µM (inactive); in the assay with U-251 it was 17.1 µM (inactive); in the assay with KM12 it was 70.1 µM (inactive). Also, the GI50 in the assay with SR was 5.96 µM (inactive); with IGROV-1, > 63.7 µM (inactive); in the assay with ACHN, 24.2 µM (inactive); with A498 it was > 100 µM (inactive); in the assay with MDA-MB-435 it was > 88.1 µM (inactive); in the assay with DU-145, > 100 µM (inactive). Moreover, the GI50 is 17.5 µM (inactive) in the assay on UACC-62; 4.55 µM (inactive) in the assay with MCF7; > 100 µM (inactive) in the assay with HOP-92; over 61.2 µM in the assay on HCT-15; 2.72 µM (inactive) in the assay with HCC 2998; 0.562 µM (active) with Hs-578T. The GI50 with TK-10 is 30.6 µM (inactive); in the assay on OVCAR-3, > 33.6 µM (inactive).
For `CC(=O)OC(C)(C)/N=N/c1ccc(Br)cc1`, the GI50 with Malme-3M was > 43.1 µM (inactive); in the assay with SK-MEL-2 it was > 85.7 µM (inactive); in the assay on OVCAR-4, 9.18 µM (inactive); with SK-OV-3 it was > 33.9 µM (inactive); with U-251, 25.1 µM (inactive); in the assay on KM12, 5.79 µM (inactive). The GI50 in the assay with SR is 0.475 µM (active); with IGROV-1, 18.7 µM (inactive); in the assay with ACHN, 1.33 µM (inactive); in the assay with A498, > 87.5 µM (inactive); with MDA-MB-435, 1.08 µM (active); in the assay on DU-145, 54.2 µM (inactive). Besides, the GI50 is 0.052 µM (active) in the assay on UACC-62; 0.551 µM (active) in the assay with MCF7; 23.7 µM (inactive) in the assay on HOP-92; 0.977 µM with HCT-15; 16.6 µM (inactive) in the assay with HCC 2998; > 53.2 µM (inactive) in the assay with Hs-578T. Moreover, the GI50 in the assay on TK-10 is 23.7 µM (inactive); in the assay on OVCAR-3 it was 13.6 µM (inactive).
With `COC(=O)c1c2c(cc3c1CC1(Cc4cc5c(cc4C1)CCC5)C3)CCC2`, the GI50 in the assay on Malme-3M, with SK-MEL-2, in the assay on OVCAR-4, with SK-OV-3, in the assay on U-251 and with SR was > 100 µM (inactive) each time. For the same compound, the GI50 was > 100 µM (inactive) in the assay on IGROV-1; > 100 µM (inactive) in the assay with ACHN; > 100 µM (inactive) with A498; 77.4 µM (inactive) in the assay with MDA-MB-435; > 100 µM (inactive) in the assay on DU-145; > 100 µM (inactive) with MCF7. Further, the GI50 with HOP-92 was > 100 µM (inactive); in the assay on HCT-15, over 100 µM; with HCC 2998, > 100 µM (inactive); in the assay on Hs-578T, > 100 µM (inactive); in the assay with TK-10, > 100 µM (inactive); in the assay with OVCAR-3, > 100 µM (inactive).
Turning to `CN(C)Cc1cc(/N=N/c2ccc(Cl)cc2)ccc1O`, the GI50 with Malme-3M is 14 µM (inactive); in the assay with SK-MEL-2, 21.3 µM (inactive); with OVCAR-4, 16.5 µM (inactive); in the assay with SK-OV-3, 18.7 µM (inactive); in the assay with U-251 it was 17.4 µM (inactive); in the assay on KM12, 17.3 µM (inactive). Also, the GI50 with SR was 16.4 µM (inactive); in the assay on IGROV-1, 15.8 µM (inactive); with ACHN, 15.3 µM (inactive); in the assay with A498, 16.4 µM (inactive); in the assay on MDA-MB-435, 16.7 µM (inactive); with DU-145 it was 25.1 µM (inactive). Besides, the GI50 in the assay with UACC-62 is 16 µM (inactive); in the assay with MCF7 it was 17.4 µM (inactive); in the assay on HOP-92, 4.46 µM (inactive); in the assay with HCT-15, 15.1 µM; in the assay on HCC 2998 it was 14.6 µM (inactive); in the assay on Hs-578T, 15 µM (inactive). Moreover, the GI50 is 15 µM (inactive) with TK-10 and 11.5 µM (inactive) in the assay with OVCAR-3.
Take `[N-]=[N+]=Nc1ccc2c(c1)Sc1ccccc1N2CCCCN1CCN(C(=O)CCNC(=O)Cc2ccc(C(=O)c3ccccc3)cc2)CC1`: the GI50 in the assay on Malme-3M is 5.2 µM (inactive); in the assay on SK-MEL-2, 4.29 µM (inactive); in the assay with OVCAR-4, 3.48 µM (inactive); with SK-OV-3, 27.9 µM (inactive); in the assay with U-251, 4.23 µM (inactive); with KM12 it was 3.31 µM (inactive). Further, the GI50 was 2.08 µM (inactive) in the assay with SR; 6.1 µM (inactive) in the assay with IGROV-1; 3.61 µM (inactive) in the assay on ACHN; 10 µM (inactive) in the assay with A498; 2.2 µM (inactive) in the assay with MDA-MB-435; 4.93 µM (inactive) with DU-145. In addition, the GI50 in the assay with UACC-62 is 6.05 µM (inactive); in the assay with MCF7 it was 2.33 µM (inactive); with HOP-92, 6.71 µM (inactive); with HCT-15 it was 2.64 µM; with HCC 2998, 2.53 µM (inactive); with Hs-578T, 17.7 µM (inactive). In addition, the results for the GI50 in the assay on TK-10 and in the assay on OVCAR-3 were 13.2 µM (inactive) and 4.5 µM (inactive), respectively.
Turning to `O=C(O)C1C2C=CC(C2)C1c1ccccc1` (stereo unspecified), the GI50 in the assay with Malme-3M is > 100 µM (inactive); in the assay with SK-MEL-2, 31.6 µM (inactive); in the assay with SK-OV-3, > 100 µM (inactive); in the assay on U-251 it was > 100 µM (inactive); in the assay on KM12, > 100 µM (inactive); in the assay on SR, > 100 µM (inactive). Further, the GI50 with ACHN, in the assay with A498, with MDA-MB-435, in the assay with DU-145, in the assay with UACC-62 and with MCF7 was > 100 µM (inactive) in each case. Besides, the GI50 in the assay on HOP-92 was > 100 µM (inactive); with HCT-15, over 100 µM; with HCC 2998, > 100 µM (inactive); in the assay on Hs-578T, > 100 µM (inactive); in the assay on TK-10 it was > 100 µM (inactive); in the assay on OVCAR-3 it was > 100 µM (inactive).
On to `Cc1ccc(/C=N/Nc2nncc3ccccc23)s1`, for which the GI50 is > 75.9 µM (inactive) with Malme-3M; > 95.3 µM (inactive) in the assay with SK-MEL-2; 26.3 µM (inactive) in the assay with OVCAR-4; > 84.1 µM (inactive) in the assay on SK-OV-3; 53.2 µM (inactive) in the assay on U-251; > 46.2 µM (inactive) in the assay with KM12. The GI50 was > 100 µM (inactive) in the assay with SR; > 61 µM (inactive) in the assay on IGROV-1; > 100 µM (inactive) with ACHN; > 100 µM (inactive) in the assay on A498; 97.1 µM (inactive) in the assay on MDA-MB-435; > 31.6 µM (inactive) in the assay on DU-145. The GI50 in the assay on UACC-62 is > 52.1 µM (inactive); in the assay on MCF7 it was 19.5 µM (inactive); with HOP-92, > 100 µM (inactive); in the assay on HCT-15, over 100 µM; in the assay with HCC 2998, > 72.8 µM (inactive); in the assay on Hs-578T, 35.6 µM (inactive). Also, the GI50 in the assay on TK-10 is > 52 µM (inactive); in the assay with OVCAR-3, > 55.8 µM (inactive).
